Laboratory results from patent publication US8058009B2, “Target protein and target gene in drug designing and screening method” (Reverse Proteomics Research Institute Co., Ltd., priority 2004, dated 2011).
pKd: −log10 of the molar value.

Key:
FLJ14797-derived protein = target: T1, FLJ14797-derived protein (Homo sapiens, UniProt Q9UGJ1); test: Biacore S51 surface plasmon resonance binding to FLJ14797-derived protein
T1 construct: made in house; host or cells: wheat germ cell-free synthesis system (PROTEIOS, Toyobo)
Procedure: (§1) A desired gene of a human full-length cDNA clone was BP-reacted with the PCR cloning vector Gateway pDONR201 using the Invitrogen Gateway system per the kit protocol to yield an entry vector. […]
(§2) The surface of the CM5 sensor chip for S51 commercially available from Biacore Company was subjected to an NTA treatment with 1 M EDC, 1.33 M NHS and 16 mg/ml AB-NTA (pH 9.2) to prepare an NTA sensor chip for S51. […] A correction for the effect of DMSO contained in the compound solutions and running buffer (solvent correction) was performed on the basis of measured results from separately prepared solutions mimicking the running buffer, and containing 3.8 to 5.1% of DMSO (8 points). The compound characterization assay program for Biacore S51 was performed to measure the interactions between immobilized ligands (proteins) and analytes (compounds; 62.5 μM to 0.244 μM), and the results were analyzed using a dedicated software program. […]

FLJ31146-derived protein = target: T2, FLJ31146-derived protein (Homo sapiens, UniProt Q9BSE4); test: Biacore S51 surface plasmon resonance binding to FLJ31146-derived protein
T2 construct: made in house; host or cells: wheat germ cell-free synthesis system (PROTEIOS, Toyobo)
T2 sequence (Q9BSE4 1-406): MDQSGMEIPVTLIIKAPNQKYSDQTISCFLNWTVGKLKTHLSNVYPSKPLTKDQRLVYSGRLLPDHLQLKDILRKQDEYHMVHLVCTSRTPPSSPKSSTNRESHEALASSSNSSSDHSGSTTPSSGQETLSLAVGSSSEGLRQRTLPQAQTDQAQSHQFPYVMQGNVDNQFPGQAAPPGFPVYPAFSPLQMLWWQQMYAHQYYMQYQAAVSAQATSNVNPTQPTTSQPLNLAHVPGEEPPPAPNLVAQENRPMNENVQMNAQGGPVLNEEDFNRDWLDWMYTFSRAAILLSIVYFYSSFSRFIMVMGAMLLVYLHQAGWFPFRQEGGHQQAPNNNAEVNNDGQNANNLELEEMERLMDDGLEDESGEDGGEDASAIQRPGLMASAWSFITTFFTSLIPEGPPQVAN
Procedure: as §1, §2

FLJ11474-derived protein = target: T3, FLJ11474-derived protein (Homo sapiens, UniProt Q9BVC4); test: Biacore S51 surface plasmon resonance binding to FLJ11474-derived protein
T3 construct: made in house; host or cells: wheat germ cell-free synthesis system (PROTEIOS, Toyobo)
Procedure: as §1, §2

FLJ10335-derived protein = target: T4, FLJ10335-derived protein (Homo sapiens, UniProt Q9NW38, S77P); test: Biacore S51 surface plasmon resonance binding to FLJ10335-derived protein
T4 construct: made in house; host or cells: wheat germ cell-free synthesis system (PROTEIOS, Toyobo)
T4 sequence (Q9NW38 1-375 S77P): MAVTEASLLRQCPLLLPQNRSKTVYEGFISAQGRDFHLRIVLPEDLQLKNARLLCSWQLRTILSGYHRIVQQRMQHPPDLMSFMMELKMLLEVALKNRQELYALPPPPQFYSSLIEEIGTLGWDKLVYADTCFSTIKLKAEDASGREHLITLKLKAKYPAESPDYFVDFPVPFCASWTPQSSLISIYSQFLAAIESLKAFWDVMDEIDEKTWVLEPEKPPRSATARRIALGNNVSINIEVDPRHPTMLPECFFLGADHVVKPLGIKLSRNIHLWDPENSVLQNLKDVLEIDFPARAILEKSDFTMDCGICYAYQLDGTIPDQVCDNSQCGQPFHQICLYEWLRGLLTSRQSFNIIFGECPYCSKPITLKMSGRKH
Procedure: as §1, §2

FLJ14467-derived protein = target: T5, FLJ14467-derived protein (Homo sapiens, UniProt Q9HB40); test: Biacore S51 surface plasmon resonance binding to FLJ14467-derived protein
T5 construct: made in house; host or cells: wheat germ cell-free synthesis system (PROTEIOS, Toyobo)
T5 sequence (Q9HB40 27-452): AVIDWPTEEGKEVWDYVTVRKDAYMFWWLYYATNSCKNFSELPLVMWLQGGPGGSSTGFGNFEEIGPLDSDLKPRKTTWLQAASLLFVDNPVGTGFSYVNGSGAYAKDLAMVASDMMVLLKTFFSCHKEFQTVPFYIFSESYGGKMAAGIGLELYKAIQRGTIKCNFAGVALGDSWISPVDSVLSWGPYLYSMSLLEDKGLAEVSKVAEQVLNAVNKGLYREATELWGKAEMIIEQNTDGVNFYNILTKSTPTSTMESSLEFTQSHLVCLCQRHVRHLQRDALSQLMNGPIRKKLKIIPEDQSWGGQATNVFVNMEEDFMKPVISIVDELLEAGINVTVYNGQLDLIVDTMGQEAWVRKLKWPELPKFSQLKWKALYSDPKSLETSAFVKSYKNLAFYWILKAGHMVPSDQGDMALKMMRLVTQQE
Procedure: as §1, §2

FLJ11045-derived protein = target: T6, FLJ11045-derived protein (Homo sapiens, UniProt Q9BXT8, E1380K); test: Biacore S51 surface plasmon resonance binding to FLJ11045-derived protein
T6 construct: made in house; host or cells: wheat germ cell-free synthesis system (PROTEIOS, Toyobo)
T6 sequence (Q9BXT8 949-1581 isoform Q9BXT8-4 E1338K): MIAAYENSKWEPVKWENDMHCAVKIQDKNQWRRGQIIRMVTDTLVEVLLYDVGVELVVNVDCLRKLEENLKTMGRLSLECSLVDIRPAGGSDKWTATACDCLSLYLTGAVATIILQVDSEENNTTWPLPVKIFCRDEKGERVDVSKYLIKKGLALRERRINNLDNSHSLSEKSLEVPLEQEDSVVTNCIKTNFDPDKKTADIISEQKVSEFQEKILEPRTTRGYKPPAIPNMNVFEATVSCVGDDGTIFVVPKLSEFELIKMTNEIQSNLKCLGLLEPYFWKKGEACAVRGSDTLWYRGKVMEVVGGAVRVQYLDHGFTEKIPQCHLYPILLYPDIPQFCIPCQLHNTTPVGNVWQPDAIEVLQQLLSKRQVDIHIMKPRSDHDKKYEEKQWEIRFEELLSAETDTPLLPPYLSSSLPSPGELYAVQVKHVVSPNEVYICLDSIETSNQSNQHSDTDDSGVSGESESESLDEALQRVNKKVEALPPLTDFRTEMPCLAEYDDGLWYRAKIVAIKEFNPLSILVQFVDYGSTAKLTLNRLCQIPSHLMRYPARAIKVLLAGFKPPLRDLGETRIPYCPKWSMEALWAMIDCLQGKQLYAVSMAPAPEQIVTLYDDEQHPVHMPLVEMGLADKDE
Source text: A desired gene of a human full-length cDNA clone was BP-reacted with the PCR cloning vector Gateway pDONR201 using the Invitrogen Gateway system per the kit protocol to yield an entry vector. As the destination vector for the Gateway system, a Gateway cassette having a Gateway recombinant sequence was introduced to allow the utilization of the Gateway system on the basis of pEU3-NII (Toyobo), which matches with a cell-free protein synthesis system (PROTEIOS) of Toyobo Co., Ltd., which employs a wheat germ extract, and a double tag destination vector modified using the PCR method to allow the expression of a peptide having a histidine tag and a FLAG tag sequence in the N-terminal region of the expressed protein was prepared.
The prepared double tag destination vector and entry vector were […] using the Invitrogen Gateway system per the protocol and the Escherichia coli competent cell DH5α was transformed therewith; a clone incorporating the expression vector was selected. A plasmid was prepared from the obtained clone using the QIAfilter Midi kit (QUIAGEN) per the kit protocol. The plasmid obtained was subjected to phenol/chloroform treatment per the protocol for PROTEIOS (Toyobo) to inactivate the RNase to yield a purified expression plasmid.
A recombinant protein was synthesized using a cell-free protein synthesis system (PROTEIOS) of Toyobo Co., Ltd., which employs a wheat germ extract. Subsequently, mRNA was prepared from the expression plasmid acquired by the method described in section 1 above per the protocol for PROTEIOS. With 20 μg of the mRNA acquired, a protein was synthesized per the protocol for PROTEIOS using two wells of a 96-well microtiter plate. The protein synthesized was subjected to high-speed centrifugation, the precipitate was removed, and the resulting soluble fraction was purified using ANTI-FLAG M2 Affinity Gel (SIGMA Company) having an anti-FLAG tag antibody immobilized hereto per the protocol, to yield a purified protein.
as §2

T3 sequence (Q9BVC4 1-325 isoform Q9BVC4-5): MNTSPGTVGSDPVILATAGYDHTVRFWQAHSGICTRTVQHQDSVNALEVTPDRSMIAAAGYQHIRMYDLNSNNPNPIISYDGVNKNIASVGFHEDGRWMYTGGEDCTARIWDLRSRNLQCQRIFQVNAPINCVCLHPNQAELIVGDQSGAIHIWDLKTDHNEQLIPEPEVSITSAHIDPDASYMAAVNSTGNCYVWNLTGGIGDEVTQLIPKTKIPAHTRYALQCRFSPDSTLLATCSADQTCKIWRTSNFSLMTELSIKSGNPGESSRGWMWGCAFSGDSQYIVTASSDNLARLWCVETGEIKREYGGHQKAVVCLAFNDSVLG
T1 sequence (Q9UGJ1 whole entry): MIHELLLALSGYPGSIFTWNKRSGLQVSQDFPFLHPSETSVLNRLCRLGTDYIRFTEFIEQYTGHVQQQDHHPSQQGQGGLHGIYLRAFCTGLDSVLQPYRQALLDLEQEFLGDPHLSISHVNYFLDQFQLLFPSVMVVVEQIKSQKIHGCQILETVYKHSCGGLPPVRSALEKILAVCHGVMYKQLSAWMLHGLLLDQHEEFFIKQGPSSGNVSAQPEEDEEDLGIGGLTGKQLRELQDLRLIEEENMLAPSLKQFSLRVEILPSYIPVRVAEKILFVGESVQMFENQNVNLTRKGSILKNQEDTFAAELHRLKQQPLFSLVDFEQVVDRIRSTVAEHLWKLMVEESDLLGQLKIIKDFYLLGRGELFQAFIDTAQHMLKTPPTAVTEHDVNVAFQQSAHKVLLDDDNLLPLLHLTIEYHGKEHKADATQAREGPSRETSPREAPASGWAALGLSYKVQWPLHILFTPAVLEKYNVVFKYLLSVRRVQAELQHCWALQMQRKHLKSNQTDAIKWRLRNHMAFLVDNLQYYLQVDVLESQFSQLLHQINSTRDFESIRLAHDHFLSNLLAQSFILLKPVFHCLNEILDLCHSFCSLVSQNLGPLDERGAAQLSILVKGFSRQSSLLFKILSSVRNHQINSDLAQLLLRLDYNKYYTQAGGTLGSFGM

`O=C(c1ccc(F)cc1)C1CCN(CCn2c(=O)[nH]c3ccccc3c2=O)CC1` [ketanserin] was tested, and the “interaction with the protein (binding level dose-proportional, saturated at high doses)” value (shortened to “interaction with the protein”) (FLJ14797-derived protein) was “interact specifically”.
For `CC1(C)S[C@@H]2[C@H](NC(=O)[C@H](N)c3ccccc3)C(=O)N2[C@H]1C(=O)O` [ampicillin], the “interaction with the protein” value (FLJ31146-derived protein) was “interact specifically”.
In the case of `N[C@@H](C(=O)N[C@@H]1C(=O)N2C(C(=O)O)=C(Cl)CS[C@H]12)c1ccccc1` [cefaclor], the “interaction with the protein” value (FLJ11474-derived protein) was “interact specifically”, the “interaction with the protein” value (FLJ10335-derived protein) was “interact specifically” and the “interaction with the protein” value (FLJ14467-derived protein) was “interact specifically”. The pKd (FLJ11045-derived protein; Biacore S51, immobilized FLJ11045-derived protein, analyte 62.5 μM to 0.244 μM, read-out: binding dissociation constant Kd) was 4.91 and the “interaction with the protein” value (FLJ11045-derived protein; FLJ11045-derived protein, Biacore S51) was “interact specifically”.
